Reference: article PMC11915801, “Evolutionary trajectory of bacterial resistance to antibiotics and antimicrobial peptides in Escherichia coli” (mSystems, 2025)
Where a SMILES comes first, the peptide text is derived from it.

Tests used:
Assay in all cases: microbe, parasite or virus in culture
Type in all cases: cell-based, Escherichia coli
[1] = tested on: CHL80 (evolved MG1655); conditions: broth microdilution; chloramphenicol-evolved strain
Text: (§1) To ensure the stable resistance evolution and inheritance of MG1655 under different drugs, we randomly selected three monoclonals from the evolved strains. The final antibiotic-evolved strains were designated as AMP120, AZI120, CHL80, CIP120, DOX120, KAN80, NIT70, and TMP30, while the final AMP-evolved strains were named COL120, Ind120, Omi120, Pex120, PGLA120, Pleu120, R8120, SAAP120, LI120, and SLAP120.
(§2) The broth microdilution method was used to measure the MIC values of antibiotics and peptides according to the Clinical and Laboratory Standards Institute guidelines. The MIC value is defined as the lowest drug concentration without visible bacteria.

[2] = tested on: AZI120 (evolved MG1655); conditions: broth microdilution; azithromycin-evolved strain
Text: as §1, §2

[3] = tested on: TMP30 (evolved MG1655); conditions: broth microdilution; trimethoprim-evolved strain
Text: as §1, §2

[4] = tested on: NIT70 (evolved MG1655); conditions: broth microdilution; nitrofurantoin-evolved strain
Text: as §1, §2

[5] = tested on: KAN80 (evolved MG1655); conditions: broth microdilution; kanamycin-evolved strain
Text: as §1, §2

[6] = tested on: CIP120 (evolved MG1655); conditions: broth microdilution; ciprofloxacin-evolved strain
Text: as §1, §2

[7] = tested on: AMP120 (evolved MG1655); conditions: broth microdilution; ampicillin-evolved strain
Text: as §1, §2

[8] = tested on: DOX120 (evolved MG1655); conditions: broth microdilution; doxycycline-evolved strain
Text: as §1, §2

[9] = tested on: COL120 (evolved MG1655); conditions: broth microdilution; colistin-evolved strain
Text: as §1, §2

[10] = tested on: E. coli K-12 MG1655; conditions: for MIC of MG1655 under the pressure of the same drug, generation 20 / MIC of MG1655 under the pressure of the same drug, generation 30 / MIC of MG1655 under the pressure of the same drug, generation 40 / MIC of MG1655 under the pressure of the same drug, generation 50 / MIC of MG1655 under the pressure of the same drug, generation 60 / MIC of MG1655 under the pressure of the same drug, generation 70 / MIC of MG1655 under the pressure of the same drug, generation 80 / MIC of MG1655 under the pressure of the same drug, generation 90 / MIC of MG1655 under the pressure of the same drug, generation 100 / MIC of MG1655 under the pressure of the same drug, generation 110 / MIC of MG1655 under the pressure of the same drug, generation 120: as E2; for MIC of MG1655 under the pressure of the same drug, generation primary: broth microdilution (CLSI), primary MG1655 before passage; for MIC of MG1655 under the pressure of the same drug, generation 10: broth microdilution, line passaged in MH broth with sub-inhibitory drug, 12 h per passage, 37℃
Procedure: as §2
Eight antibiotics and ten AMPs at the sub-inhibitory concentration were prepared. A 300-µL system, including 260 µL of MH broth, 30 µL of prepared drug, and 10 µL of bacterial culture, was used for resistance passages. After 12 h of incubation at 37℃ and 200 rpm, 10 µL of the above bacterial culture was added into the new sterile drug-containing broth. MIC values of bacterial culture were determined. The drug concentration was adjusted according to the MIC value change until the end of the 120 passages.

SMILES | MIC values of evolved MG1655, strain CHL80 [1] [µg/mL] | MIC values of evolved MG1655, strain AZI120 [2] [µg/mL] | MIC values of evolved MG1655, strain TMP30 [3] [µg/mL] | MIC values of evolved MG1655, strain NIT70 [4] [µg/mL] | MIC values of evolved MG1655, strain KAN80 [5] [µg/mL] | MIC values of evolved MG1655, strain CIP120 [6] [µg/mL] | MIC values of evolved MG1655, strain AMP120 [7] [µg/mL] | MIC values of evolved MG1655, strain DOX120 [8] [µg/mL] | MIC values of evolved MG1655, strain COL120 [9] [µg/mL] | MIC of MG1655 under the pressure of the same drug, generation 20 [10] [µg/mL] | MIC of MG1655 under the pressure of the same drug, generation 30 [10] [µg/mL] | MIC of MG1655 under the pressure of the same drug, generation 40 [10] [µg/mL] | MIC of MG1655 under the pressure of the same drug, generation 50 [10] [µg/mL] | MIC of MG1655 under the pressure of the same drug, generation 60 [10] [µg/mL] | MIC of MG1655 under the pressure of the same drug, generation 70 [10] [µg/mL] | MIC of MG1655 under the pressure of the same drug, generation 80 [10] [µg/mL] | MIC of MG1655 under the pressure of the same drug, generation 90 [10] [µg/mL] | MIC of MG1655 under the pressure of the same drug, generation 100 [10] [µg/mL] | MIC of MG1655 under the pressure of the same drug, generation 110 [10] [µg/mL] | MIC of MG1655 under the pressure of the same drug, generation 120 [10] [µg/mL] | also measured
CC(C)C[C@H](NC(=O)[C@H](Cc1ccc(O)cc1)NC(=O)[C@H](Cc1c[nH]cn1)NC(=O)[C@@H](NC(=O)[C@H](CC(C)C)NC(=O)[C@H](C)NC(=O)[C@H](C)NC(=O)[C@H](CCCCN)NC(=O)CNC(=O)[C@@H](NC(=O)[C@H](Cc1c[nH]cn1)NC(=O)[C@H](CCCCN)NC(=O)CNC(=O)[C@@H](NC(=O)[C@H](Cc1c[nH]cn1)NC(=O)[C@H](C)NC(=O)[C@H](C)NC(=O)[C@H](CCCCN)NC(=O)[C@H](CCCCN)NC(=O)[C@H](Cc1ccccc1)NC(=O)[C@H](Cc1ccccc1)NC(=O)[C@H](CO)NC(=O)CNC(=O)[C@H](Cc1c[nH]c2ccccc12)NC(=O)CN)C(C)C)C(C)C)[C@@H](C)O)C(=O)O [Pleu, Pleurocidin] (H-GWGSFFKKAAHVGKHVGKAALTHYL-OH) | 1 | 1 | 1 | 1 | 1 | 1 | 1 | 1 | 1 | 2 | 2 | 2 | 2 | 2 | 2 | 2 | 2 | 2 | 2 | 2 | MIC of MG1655 under the pressure of the same drug, generation primary [10]: 2 µg/mL; MIC of MG1655 under the pressure of the same drug, generation 10 [10]: 2 µg/mL
CC(C)C[C@H](NC(=O)[C@H](CCCCN)NC(=O)[C@H](Cc1ccccc1)NC(=O)[C@@H](NC(=O)[C@H](CCCCN)NC(=O)CNC(=O)[C@H](CC(C)C)NC(=O)[C@@H](N)Cc1ccccc1)C(C)C)C(=O)N[C@@H](C)C(=O)N[C@@H](CO)C(=O)N[C@@H](CCCCN)C(=O)N[C@H](C(=O)N[C@@H](Cc1ccccc1)C(=O)N[C@@H](CCCCN)C(=O)N[C@@H](C)C(=O)N[C@H](C(=O)N[C@@H](Cc1ccccc1)C(=O)NCC(=O)N[C@@H](CCCCN)C(=O)N[C@H](C(=O)O)C(C)C)C(C)C)C(C)C [R8] (H-FLGKVFKLASKVFKAVFGKV-OH) | 8 | 8 | 8 | 8 | 4 | 8 | 4 | 8 | 4 | 4 | 4 | 4 | 4 | 4 | 4 | 4 | 4 | 4 | 8 | 8 | MIC of MG1655 under the pressure of the same drug, generation primary [10]: 4 µg/mL; MIC of MG1655 under the pressure of the same drug, generation 10 [10]: 4 µg/mL
